Reference: patent US20260365682A1, “MODULATORS OF TNF-ALPHA ACTIVITY” (Forward Therapeutics, Inc., priority 2022, published 2026)

Biological target: T1, TNF-α (Homo sapiens, UniProt P01375)
T1 construct: purchased R&D 210-TA-020/CF
Experiment: TNF-α Induced HEK Blue Cellular Assay (secreted alkaline phosphatase expression, QUANTI-Blue)
Format: cell-based
Conditions: HEK Blue TNFα reporter cells; TNF-α 100 μg/ml; 24 hrs at 37° C.; inhibition of secreted alkaline phosphatase; read-out: IC50 value
Method: TNF-α Induced HEK Blue Cellular Assay
Test articles were diluted in DMSO and serially diluted into 384 well assay plate (Corning 3765), at final concentrations ranging from […] to 0.5 nM. HEK Blue™ TNFα reporter cells were added at a final density of 10,000 cell per well in assay media [DMEM (Gibco, cat #21063-029), 10% fetal bovine serum (ExcelBio, cat #FND500), 1% Penicillin-Streptomycin (Solarbio, cat #P1400-100]. TNF-α (R&D 210-TA-020/CF) was then added to the assay plate at a final concentration of […]. This plate was then incubated for 24 hrs at 37° C. and 5% CO2. Secreted alkaline phosphatase expression was then measured using QUANTI-Blue™ (Invivogen), according to manufacturer instructions and read on an Envision microplate reader at 620 nm.
Inhibition data for test compound over a range of concentration was plotted as percentage inhibition of the test compound (100%=maximum inhibition). IC50 values were determined after correcting for background [(sample read-mean of low control)/(mean of high control-mean of low control)] whereby the low control is DMSO without stimulation and high control is DMSO with stimulation. The IC50 is defined as the concentration of test compound which produces 50% inhibition and was quantified using the 4 parameter logistic equation to fit the data.

T1 sequence (P01375 77-233 limits assumed): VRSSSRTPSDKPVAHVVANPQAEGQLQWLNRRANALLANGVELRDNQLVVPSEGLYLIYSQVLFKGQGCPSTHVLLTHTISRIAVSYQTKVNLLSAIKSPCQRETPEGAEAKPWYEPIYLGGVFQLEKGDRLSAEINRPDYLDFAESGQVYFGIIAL

Compound	IC50 [nM]
[2H]C([2H])([2H])N1C(=O)c2cccc(OC(F)F)c2[C@H]2C[C@@H]1c1nc3ccc(C#CCCC4CC4)cc3n12 (single isomer, unassigned) [Example 137]	< 100
[2H]C([2H])([2H])N1C(=O)c2cccc(OC(F)F)c2[C@H]2C[C@@H]1c1nc3ccc(C#CCC(C)O)cc3n12 (single isomer, unassigned) [Example 139, (7R,14R)-1-(difluoromethoxy)-11-((R or S)-4-hydroxypent-1-yn-1-yl)-6-(methyl-d3)-6,7-dihydro-7,14-methanobenzo[f]benzo[4,5]imidazo[1,2-a][1,4]diazocin-5(14H)-one]	< 100
[2H]C([2H])([2H])N1C(=O)c2cccc(OC(F)F)c2[C@H]2C[C@@H]1c1nc3ccc(C#CCC(C)O)cc3n12 (single isomer, unassigned) [Example 140, (7R,14R)-1-(difluoromethoxy)-11-((S or R)-4-hydroxypent-1-yn-1-yl)-6-(methyl-d3)-6,7-dihydro-7,14-methanobenzo[f]benzo[4,5]imidazo[1,2-a][1,4]diazocin-5(14H)-one]	< 100
[2H]C([2H])([2H])N1C(=O)c2cccc(OC(F)F)c2[C@H]2C[C@@H]1c1nc3ccc(C#CCC(C)OC)cc3n12 (single isomer, unassigned) [Example 148, (7R,14R)-1-(difluoromethoxy)-11-((R or S)-4-methoxypent-1-yn-1-yl)-6-(methyl-d3)-6,7-dihydro-7,14-methanobenzo[f]benzo[4,5]imidazo[1,2-a][1,4]diazocin-5(14H)-one]	< 100
[2H]C([2H])([2H])N1C(=O)c2cccc(OC(F)F)c2[C@H]2C[C@@H]1c1nc3ccc(C#CCC(C)OC)cc3n12 (single isomer, unassigned) [Example 149, (7R,14R)-1-(difluoromethoxy)-11-((S or R)-4-methoxypent-1-yn-1-yl)-6-(methyl-d3)-6,7-dihydro-7,14-methanobenzo[f]benzo[4,5]imidazo[1,2-a][1,4]diazocin-5(14H)-one]	< 100
[2H]C([2H])([2H])N1C(=O)c2cccc(OC(F)F)c2[C@H]2C[C@@H]1c1nc3ccc(C#CC(O)C(F)(F)F)cc3n12 (single isomer, unassigned) [Example 199, (7R,14R)-1-(difluoromethoxy)-6-(methyl-d3)-11-((R or S)-4,4,4-trifluoro-3-hydroxybut-1-yn-1-yl)-6,7-dihydro-7,14-methanobenzo[f]benzo[4,5]imidazo[1,2-a][1,4]diazocin-5(14H)-one]	100 to 1000
[2H]C([2H])([2H])N1C(=O)c2cccc(OC(F)F)c2[C@H]2C[C@@H]1c1nc3ccc(C#CC(O)C(F)(F)F)cc3n12 (single isomer, unassigned) [Example 200, (7R,14R)-1-(difluoromethoxy)-6-(methyl-d3)-11-((S or R)-4,4,4-trifluoro-3-hydroxybut-1-yn-1-yl)-6,7-dihydro-7,14-methanobenzo[f]benzo[4,5]imidazo[1,2-a][1,4]diazocin-5(14H)-one]	100 to 1000
[2H]C([2H])([2H])N1C(=O)c2cccc(OC(F)F)c2[C@H]2C[C@@H]1c1nc3ccc(C#CC(O)CC)cc3n12 (single isomer, unassigned) [Example 208, (7R,14R)-1-(difluoromethoxy)-11-((R or S)-3-hydroxypent-1-yn-1-yl)-6-(methyl-d3)-6,7-dihydro-7,14-methanobenzo[f]benzo[4,5]imidazo[1,2-a][1,4]diazocin-5(14H)-one]	10000 to 30000
[2H]C([2H])([2H])N1C(=O)c2cccc(OC(F)F)c2[C@H]2C[C@@H]1c1nc3ccc(C#CC(O)CC)cc3n12 (single isomer, unassigned) [Example 209, (7R,14R)-1-(difluoromethoxy)-11-((S or R)-3-hydroxypent-1-yn-1-yl)-6-(methyl-d3)-6,7-dihydro-7,14-methanobenzo[f]benzo[4,5]imidazo[1,2-a][1,4]diazocin-5(14H)-one]	10000 to 30000
[2H]C([2H])([2H])N1C(=O)c2cccc(OC(F)F)c2[C@H]2C[C@@H]1c1nc3ccc(C#CC(N)CC(C)(C)O)cc3n12 (single isomer, unassigned) [Example 216, (7R,14R)-11-((S or R)-3-amino-5-hydroxy-5-methylhex-1-yn-1-yl)-1-(difluoromethoxy)-6-(methyl-d3)-6,7-dihydro-7,14-methanobenzo[f]benzo[4,5]imidazo[1,2-a][1,4]diazocin-5(14H)-one]	10000 to 30000
[2H]C([2H])([2H])N1C(=O)c2cccc(OC(F)F)c2[C@H]2C[C@@H]1c1nc3ccc(C#CC(N)CC(C)(C)O)cc3n12 (single isomer, unassigned) [Example 217, (7R,14R)-11-((R or S)-3-amino-5-hydroxy-5-methylhex-1-yn-1-yl)-1-(difluoromethoxy)-6-(methyl-d3)-6,7-dihydro-7,14-methanobenzo[f]benzo[4,5]imidazo[1,2-a][1,4]diazocin-5(14H)-one]	10000 to 30000
[2H]C([2H])([2H])N1C(=O)c2cccc(OC(F)F)c2[C@H]2C[C@@H]1c1nc3ccc(C#CC(O)CC(C)(C)O)cc3n12 (single isomer, unassigned) [Example 221, (7R,14R)-1-(difluoromethoxy)-11-((S or R)-3,5-dihydroxy-5-methylhex-1-yn-1-yl)-6-(methyl-d3)-6,7-dihydro-7,14-methanobenzo[f]benzo[4,5]imidazo[1,2-a][1,4]diazocin-5(14H)-one]	100 to 1000
[2H]C([2H])([2H])N1C(=O)c2cccc(OC(F)F)c2[C@H]2C[C@@H]1c1nc3ccc(C#CC(O)CC(C)(C)O)cc3n12 (single isomer, unassigned) [Example 222, (7R,14R)-1-(difluoromethoxy)-11-((R or S)-3,5-dihydroxy-5-methylhex-1-yn-1-yl)-6-(methyl-d3)-6,7-dihydro-7,14-methanobenzo[f]benzo[4,5]imidazo[1,2-a][1,4]diazocin-5(14H)-one]	< 100
[2H]C([2H])([2H])N1C(=O)c2cccc(OC(F)F)c2[C@H]2C[C@@H]1c1nc3ccc(C#CC(C)CCO)cc3n12 (single isomer, unassigned) [Example 239, (7R,14R)-1-(difluoromethoxy)-11-((S or R)-5-hydroxy-3-methylpent-1-yn-1-yl)-6-(methyl-d3)-6,7-dihydro-7,14-methanobenzo[f]benzo[4,5]imidazo[1,2-a][1,4]diazocin-5(14H)-one]	< 100
[2H]C([2H])([2H])N1C(=O)c2cccc(OC(F)F)c2[C@H]2C[C@@H]1c1nc3ccc(C#CC(C)CCO)cc3n12 (single isomer, unassigned) [Example 240, (7R,14R)-1-(difluoromethoxy)-11-((R or S)-5-hydroxy-3-methylpent-1-yn-1-yl)-6-(methyl-d3)-6,7-dihydro-7,14-methanobenzo[f]benzo[4,5]imidazo[1,2-a][1,4]diazocin-5(14H)-one]	< 100
[2H]C([2H])([2H])N1C(=O)c2cccc(OC(F)F)c2[C@H]2C[C@@H]1c1nc3ccc(C#CCC(O)C(C)O)cc3n12 (single isomer, unassigned) [Example 243, (7R,14R)-1-(difluoromethoxy)-11-((4R or 4S,5S or 5R)-4,5-dihydroxyhex-1-yn-1-yl)-6-(methyl-d3)-6,7-dihydro-7,14-methanobenzo[f]benzo[4,5]imidazo[1,2-a][1,4]diazocin-5(14H)-one]	< 100
[2H]C([2H])([2H])N1C(=O)c2cccc(OC(F)F)c2[C@H]2C[C@@H]1c1nc3ccc(C#CCC(O)C(C)O)cc3n12 (single isomer, unassigned) [Example 244, (7R,14R)-1-(difluoromethoxy)-11-((4S or 4S,5R or 5S)-4,5-dihydroxyhex-1-yn-1-yl)-6-(methyl-d3)-6,7-dihydro-7,14-methanobenzo[f]benzo[4,5]imidazo[1,2-a][1,4]diazocin-5(14H)-one]	< 100
[2H]C([2H])([2H])N1C(=O)c2cccc(OC(F)F)c2[C@H]2C[C@@H]1c1nc3ccc(C#CCC(O)C(C)O)cc3n12 (single isomer, unassigned) [Example 245, (7R,14R)-1-(difluoromethoxy)-11-((4S or 4R,5S or 5R)-4,5-dihydroxyhex-1-yn-1-yl)-6-(methyl-d3)-6,7-dihydro-7,14-methanobenzo[f]benzo[4,5]imidazo[1,2-a][1,4]diazocin-5(14H)-one]	< 100
[2H]C([2H])([2H])N1C(=O)c2cccc(OC(F)F)c2[C@H]2C[C@@H]1c1nc3ccc(C#CCC(O)C(C)O)cc3n12 (single isomer, unassigned) [Example 246, (7R,14R)-1-(difluoromethoxy)-11-((4R or 4S,5R or 5S)-4,5-dihydroxyhex-1-yn-1-yl)-6-(methyl-d3)-6,7-dihydro-7,14-methanobenzo[f]benzo[4,5]imidazo[1,2-a][1,4]diazocin-5(14H)-one]	< 100
CC1C(C#Cc2ccc3nc4n(c3c2)[C@@H]2C[C@H]4N(C)C(=O)c3cccc(OC(F)F)c32)CN1C1COC1 (single isomer, unassigned) [Example 257, (7R,14R)-1-(difluoromethoxy)-6-(methyl-d3)-11-(((2S or 2R)-2-methyl-1-(oxetan-3-yl)azetidin-3-yl)ethynyl)-6,7-dihydro-7,14-methanobenzo[f]benzo[4,5]imidazo[1,2-a][1,4]diazocin-5(14H)-one]	< 100
